In one assay the target is T1, PA LDC (Pseudomonas aeruginosa, UniProt Q9HTZ1).
T1 construct: hexahistidine (pET14b N-terminal leader) (N); made in house; host or cells: E. coli BL21 (plasmid pPALDC1, pET14b)
Nature of the assay: LDC assay (tetrapeptide Lys cleavage, Amplex Red detection of D-Ala) with purified PA LDC. Conditions: 10 minutes preincubation at room temperature before tetrapeptide substrate, read-out: IC50, inhibition of PA LDC. The class given is biochemical. On the procedure: (§1) The assay consists of two parts: (i) cleavage of peptide substrate by LDC enzyme, and (ii) detection of the D-Ala cleavage product using Amplex Red. Conditions for E. coli LDC cleavage were established using a modification of conditions presented by Templin et al. (1999). The cleavage assay was assembled in black 96 half area flat bottom plates (Costar, 3694) (Corning Life Sciences, Acton, Mass.) and consisted of LDC at the indicated concentration in 30 μl (microliters) of 100 mM (milliMolar) Tris-HCl pH 8.5 containing 25 μg/ml of bovine serum albumin (B4287 Sigma, St. Louis, Mo.). “Tetrapeptide Lys” substrate L-Ala-γ-D-Glu-L-Lys-D-Ala was synthesized by SynPep, Inc. (Dublin, Calif.). […] Inhibitor compounds were added to the enzyme in 2 μl of 30% dimethyl sulfoxide and incubated for 10 minutes at room temperature, prior to the addition of tetrapeptide. The negative control received 2 μl of 30% dimethyl sulfoxide alone without any compound.
(§2) The principle of the detection system is oxidation of D-Ala by the enzyme D-amino acid oxidase to produces hydrogen peroxide. […] The detection reaction was incubated for 30 minutes at 37° C., and the plates were read on a SpectraMax Gemini (excitation 530 nm, emission 590 nm) (Molecular Devices, Sunnyvale, Calif.). […]

A further assay has as its target E. coli LDC (Escherichia coli, UniProt P76008). Description: LDC assay (tetrapeptide cleavage, Amplex Red detection) with E. coli LDC. The class given is biochemical. As to the method:
as §1, §2

The target of a further assay is LDC (Escherichia coli, UniProt P76008). Particulars: Templin et al., 1999; cited from earlier work.
Sequence of LDC (P76008 whole entry): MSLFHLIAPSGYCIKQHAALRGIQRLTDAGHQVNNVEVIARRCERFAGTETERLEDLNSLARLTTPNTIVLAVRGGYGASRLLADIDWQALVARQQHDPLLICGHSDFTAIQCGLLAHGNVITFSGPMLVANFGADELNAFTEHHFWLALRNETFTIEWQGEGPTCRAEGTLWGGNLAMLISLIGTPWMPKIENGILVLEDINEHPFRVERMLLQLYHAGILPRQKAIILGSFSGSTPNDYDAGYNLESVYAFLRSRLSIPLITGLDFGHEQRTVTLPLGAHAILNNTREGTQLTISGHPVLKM

pIC50: −log10 of the molar value.

Consider three compounds from patent US20070212705A1, “P[…]-D CARBOX[…], EXPRESSION AND ACTIVITY” (priority 2005, published 2007).

Sequence of E. coli LDC (P76008 whole entry): as above
T1 sequence (Q9HTZ1 whole entry): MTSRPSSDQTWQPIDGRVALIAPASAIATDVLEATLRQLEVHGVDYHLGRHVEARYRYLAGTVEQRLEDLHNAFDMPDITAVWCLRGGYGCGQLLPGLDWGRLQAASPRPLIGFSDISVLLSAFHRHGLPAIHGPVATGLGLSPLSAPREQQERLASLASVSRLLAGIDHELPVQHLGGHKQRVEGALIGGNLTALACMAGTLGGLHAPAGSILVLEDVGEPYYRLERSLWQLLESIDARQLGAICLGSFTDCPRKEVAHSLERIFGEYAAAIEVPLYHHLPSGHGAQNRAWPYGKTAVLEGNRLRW

As to `O=C(Sc1nc2ccccc2nc1SC(=O)c1cc2ccccc2o1)c1cc2ccccc2o1` [2-Benzofurancarbothioic acid, S,S′-2,3-quinoxalinediyl ester], the negative logarithm of the IC50 (pIC50) (in general, the IC50 on a negative log10 scale, so that one unit is a factor of ten) is 7.00 on PA LDC and 5.85 against E. coli LDC.
For `O=C(O)C=CC(=O)c1ccc2c(c1)NC(=O)CO2` [3,4-dihydro-g,3-dioxo-2H-1,4-Benzoxazine-6-crotonic acid] the same measures were 3.77 and 4.92.
For `N[C@H](CCOc1ccc(/C(=N/O)C(=O)N[C@H]2CN([C@@H](C(=O)O)c3ccc(O)cc3)C2=O)cc1)C(=O)O` [Nocardicin A], the “Inhibition of LDC” value on LDC is recorded as “inhibited”.
